Common to all, as to type: cell-based
The target of test [1] is T1, hGIPR (Homo sapiens, UniProt P48546).
T1 sequence (P48546 22-466): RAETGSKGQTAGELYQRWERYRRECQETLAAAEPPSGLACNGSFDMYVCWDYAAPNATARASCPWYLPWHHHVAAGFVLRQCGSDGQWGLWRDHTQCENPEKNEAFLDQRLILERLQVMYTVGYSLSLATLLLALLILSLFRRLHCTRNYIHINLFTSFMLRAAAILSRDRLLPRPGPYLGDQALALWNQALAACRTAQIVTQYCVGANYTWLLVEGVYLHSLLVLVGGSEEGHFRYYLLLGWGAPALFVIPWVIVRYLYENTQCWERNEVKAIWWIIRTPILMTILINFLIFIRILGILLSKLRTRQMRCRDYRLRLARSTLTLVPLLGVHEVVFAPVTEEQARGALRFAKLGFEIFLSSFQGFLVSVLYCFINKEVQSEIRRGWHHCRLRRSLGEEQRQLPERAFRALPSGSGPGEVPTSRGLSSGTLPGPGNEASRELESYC
The test can be described thus: Functional cAMP activity in the presence of 1% HSA. The note with it: read-out: cAMP Rel EC50, hGIPR.

Test [2] addresses T2, hGLP-1R (Homo sapiens, UniProt P43220). The test can be described thus: Functional cAMP activity in the presence of 1% HSA. The following applies: read-out: cAMP Rel EC50, hGLP-1R.
The target of the next test is human GcgR (Homo sapiens, UniProt P47871). Kind of test: Functional cAMP activity in the presence of 1% HSA. The note with it: read-out: cAMP Rel EC50, hGcgR.
Chain of human GcgR (P47871 26-477): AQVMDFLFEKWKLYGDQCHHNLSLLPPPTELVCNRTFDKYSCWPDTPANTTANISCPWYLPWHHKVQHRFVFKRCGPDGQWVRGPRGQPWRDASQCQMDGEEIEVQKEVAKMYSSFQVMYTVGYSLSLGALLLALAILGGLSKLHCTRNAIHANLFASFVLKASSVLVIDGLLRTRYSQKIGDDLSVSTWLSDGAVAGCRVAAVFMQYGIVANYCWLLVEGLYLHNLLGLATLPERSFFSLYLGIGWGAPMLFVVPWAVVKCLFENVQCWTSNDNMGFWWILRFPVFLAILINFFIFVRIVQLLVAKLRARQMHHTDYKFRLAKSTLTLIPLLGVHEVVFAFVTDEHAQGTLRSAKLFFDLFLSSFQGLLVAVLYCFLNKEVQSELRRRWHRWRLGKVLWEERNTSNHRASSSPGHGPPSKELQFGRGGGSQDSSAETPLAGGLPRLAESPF
Test [3] concerns the target T1, hGIPR. The test can be described thus: Functional cAMP activation in the presence of 0.1% casein (no HSA). The note with it: read-out: Relative cAMP EC50, hGIPR.
The target of test [4] is T2, hGLP-1R. The test is described as above. The note with it: read-out: Relative cAMP EC50, hGLP-1R.
The next test deals with hGcgR (Homo sapiens, UniProt P47871). The test is described as above. The following applies: read-out: Relative cAMP EC50, hGcgR.
Chain of hGcgR (P47871 26-477): as above

Starred links: 1 amine or outer side, 2 acyl side, 3 side chain; linkers in the order of their positions; H or OH if unused. Non-standard residues stand in square brackets, D forms with d. Residues, ends and D or L forms follow the SMILES beside them. Groups on a side chain read outwards from the residue. *: point of attachment. C18 diacid = O=C(O)CCCCCCCCCCCCCCCCC(=O)*; αMePhe(2-F) = C[C@](N)(Cc1ccccc1F)C(=O)O; γGlu = O=C(O)[C@H](CCC(=O)[*:2])N[*:1]; αMeF = C[C@](N)(Cc1ccccc1)C(=O)O; 4Pal = N[C@@H](Cc1ccncc1)C(=O)O; Aad = N[C@@H](CCCC(=O)O)C(=O)O; Orn = NCCC[C@H](N)C(=O)O; AEEA = NCCOCCOCC(=O)O; Aib = CC(C)(N)C(=O)O
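For Relative cAMP EC50, hGIPR in this document: intracellular cAMP rise after 30 min at 37 °C read by HTRF against a standard curve, scaled between buffer alone (0%) and top control ligand concentration (100%), four-parameter fit.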
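For Relative cAMP EC50, hGLP-1R in this document: intracellular cAMP rise after 30 min at 37 °C read by HTRF, normalized between buffer only (0%) and maximal control ligand (100%), four-parameter variable-slope fit.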
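For Relative cAMP EC50, hGcgR in this document: intracellular cAMP rise after 30 min at 37 °C, read by HTRF against a cAMP standard curve, scaled from buffer only (0%) to maximal control ligand response (100%).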

T2 sequence (P43220 24-463): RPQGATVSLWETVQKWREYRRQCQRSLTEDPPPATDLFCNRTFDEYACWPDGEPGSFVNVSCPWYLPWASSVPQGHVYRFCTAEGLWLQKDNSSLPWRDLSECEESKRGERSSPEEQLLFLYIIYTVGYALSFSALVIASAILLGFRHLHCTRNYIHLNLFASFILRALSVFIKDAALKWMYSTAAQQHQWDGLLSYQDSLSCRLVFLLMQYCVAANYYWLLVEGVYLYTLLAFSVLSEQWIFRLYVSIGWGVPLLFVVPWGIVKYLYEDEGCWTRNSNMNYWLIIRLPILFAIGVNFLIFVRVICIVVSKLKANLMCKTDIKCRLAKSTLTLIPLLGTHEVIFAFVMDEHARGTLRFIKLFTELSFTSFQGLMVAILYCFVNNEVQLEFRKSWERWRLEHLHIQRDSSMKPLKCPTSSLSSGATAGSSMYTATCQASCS
Method for hGcgR: After a 30-minute incubation at 37° C., the resulting increase in intracellular cAMP is quantitatively determined using the CisBio CAMP Dynamic 2 HTRF Assay Kit (62AM4PEJ). Briefly, cAMP levels within the cell are detected by adding the cAMP-d2 conjugate in cell lysis buffer followed by the antibody anti-cAMP-Eu^3+-Cryptate, also in cell lysis buffer.
Intracellular cAMP levels are determined by extrapolation using a standard curve. Dose response curves of compounds are plotted as the percentage of stimulation normalized to minimum (buffer only) and maximum (maximum concentration of each control ligand) values and analyzed using a four parameter non-linear regression fit with a variable slope (Genedata Screener 13). EC50 is the concentration of compound causing half-maximal simulation in a dose response curve. Each relative EC50 value for the Geometric mean calculation is determined from a curve fitting.

For `CC[C@H](C)[C@H](NC(=O)[C@H](Cc1ccccc1)NC(=O)[C@H](C)NC(=O)C(C)(C)NC(=O)[C@H](CCC(N)=O)NC(=O)[C@H](C)NC(=O)[C@H](CCCCNC(=O)CC[C@H](NC(=O)CC[C@H](NC(=O)CCCCCCCCCCCCCCCCC(=O)O)C(=O)O)C(=O)O)NC(=O)[C@H](CCCN)NC(=O)[C@H](CC(=O)O)NC(=O)[C@H](CC(C)C)NC(=O)[C@H](CC(C)C)NC(=O)[C@@H](NC(=O)[C@H](CO)NC(=O)[C@H](Cc1ccc(O)cc1)NC(=O)[C@H](CC(=O)O)NC(=O)[C@H](CO)NC(=O)[C@@H](NC(=O)[C@](C)(Cc1ccccc1F)NC(=O)[C@@H](NC(=O)CNC(=O)[C@H](CCC(N)=O)NC(=O)C(C)(C)NC(=O)[C@@H](N)Cc1ccc(O)cc1)[C@@H](C)O)[C@@H](C)O)[C@@H](C)CC)C(=O)N[C@@H](CCC(=O)O)C(=O)N[C@@H](Cc1ccc(O)cc1)C(=O)N[C@@H](CC(C)C)C(=O)N[C@@H](CCC(=O)O)C(=O)N[C@@H](CCC(=O)O)C(=O)NCC(=O)NCC(=O)N1CCC[C@H]1C(=O)N[C@@H](CO)C(=O)N[C@@H](CO)C(=O)NCC(=O)N[C@@H](C)C(=O)N1CCC[C@H]1C(=O)N1CCC[C@H]1C(=O)N1CCC[C@H]1C(=O)N[C@@H](CO)C(N)=O` [Example 414] (H-Y[Aib]QGT[αMePhe(2-F)]TSDYSILLD[Orn]K([γGlu-γGlu-C18 diacid])AQ[Aib]AFIEYLEEGGPSSGAPPPS-NH2), the concentration for a half-maximal effect (EC50) is 14.9 nM at hGIPR [1]; 32.8 nM at hGLP-1R [2]; 487 nM on human GcgR; 0.0303 nM at hGIPR [3]; 0.176 nM on hGLP-1R [4]; 4.56 nM on hGcgR.

Regarding `CC[C@H](C)[C@H](NC(=O)[C@H](CO)NC(=O)[C@H](Cc1ccc(O)cc1)NC(=O)[C@H](CC(=O)O)NC(=O)[C@H](CO)NC(=O)[C@@H](NC(=O)[C@](C)(Cc1ccccc1F)NC(=O)[C@@H](NC(=O)CNC(=O)[C@H](CCC(N)=O)NC(=O)C(C)(C)NC(=O)[C@@H](N)Cc1ccc(O)cc1)[C@@H](C)O)[C@@H](C)O)C(=O)N[C@@H](CC(C)C)C(=O)N[C@@H](CC(C)C)C(=O)N[C@@H](CC(=O)O)C(=O)N[C@@H](CCCCN)C(=O)N[C@@H](CCCCNC(=O)CC[C@H](NC(=O)CC[C@H](NC(=O)CCCCCCCCCCCCCCCCC(=O)O)C(=O)O)C(=O)O)C(=O)N[C@@H](C)C(=O)N[C@@H](CCC(N)=O)C(=O)NC(C)(C)C(=O)N[C@@H](CCCC(=O)O)C(=O)N[C@@H](Cc1ccccc1)C(=O)N[C@H](C(=O)N[C@@H](CCC(=O)O)C(=O)N[C@@H](Cc1ccc(O)cc1)C(=O)N[C@@H](CC(C)C)C(=O)N[C@@H](CCC(=O)O)C(=O)N[C@@H](CCC(=O)O)C(=O)NCC(=O)NCC(=O)N1CCC[C@H]1C(=O)N[C@@H](CO)C(=O)N[C@@H](CO)C(=O)NCC(=O)N[C@@H](C)C(=O)N1CCC[C@H]1C(=O)N1CCC[C@H]1C(=O)N1CCC[C@H]1C(=O)N[C@@H](CO)C(N)=O)[C@@H](C)CC` [Example 415] (H-Y[Aib]QGT[αMePhe(2-F)]TSDYSILLDKK([γGlu-γGlu-C18 diacid])AQ[Aib][Aad]FIEYLEEGGPSSGAPPPS-NH2), the concentration giving a half-maximal response (EC50) amounted to 28.9 nM on hGIPR [1]; 52.6 nM on hGLP-1R [2]; 1090 nM on human GcgR; 0.0496 nM on hGIPR [3]; 0.38 nM on hGLP-1R [4]; 8.64 nM on hGcgR.

Consider `CC[C@H](C)[C@H](NC(=O)[C@H](CO)NC(=O)[C@H](Cc1ccc(O)cc1)NC(=O)[C@H](CC(=O)O)NC(=O)[C@H](CO)NC(=O)[C@@H](NC(=O)[C@](C)(Cc1ccccc1F)NC(=O)[C@@H](NC(=O)CNC(=O)[C@H](CCC(N)=O)NC(=O)C(C)(C)NC(=O)[C@@H](N)Cc1ccc(O)cc1)[C@@H](C)O)[C@@H](C)O)C(=O)N[C@@H](CC(C)C)C(=O)N[C@@H](CC(C)C)C(=O)N[C@@H](CC(=O)O)C(=O)N[C@@H](CCCCN)C(=O)N[C@@H](CCCCNC(=O)CC[C@H](NC(=O)CC[C@H](NC(=O)CCCCCCCCCCCCCCCCC(=O)O)C(=O)O)C(=O)O)C(=O)N[C@@H](C)C(=O)N[C@@H](CCC(N)=O)C(=O)NC(C)(C)C(=O)N[C@@H](CC(N)=O)C(=O)N[C@@H](Cc1ccccc1)C(=O)N[C@H](C(=O)N[C@@H](CCC(=O)O)C(=O)N[C@@H](Cc1ccc(O)cc1)C(=O)N[C@@H](CC(C)C)C(=O)N[C@@H](CCC(=O)O)C(=O)N[C@@H](CCC(=O)O)C(=O)NCC(=O)NCC(=O)N1CCC[C@H]1C(=O)N[C@@H](CO)C(=O)N[C@@H](CO)C(=O)NCC(=O)N[C@@H](C)C(=O)N1CCC[C@H]1C(=O)N1CCC[C@H]1C(=O)N1CCC[C@H]1C(=O)N[C@@H](CO)C(N)=O)[C@@H](C)CC` [Example 416] (H-Y[Aib]QGT[αMePhe(2-F)]TSDYSILLDKK([γGlu-γGlu-C18 diacid])AQ[Aib]NFIEYLEEGGPSSGAPPPS-NH2), for which the EC50 at hGIPR [1] was 27.6 nM; on hGLP-1R [2], 40.8 nM; on human GcgR, 348 nM; at hGIPR [3], 0.0393 nM; on hGLP-1R [4] it was 0.331 nM; at hGcgR it was 2.08 nM.

Take `CC[C@H](C)[C@H](NC(=O)[C@H](Cc1ccccc1)NC(=O)[C@H](C)NC(=O)C(C)(C)NC(=O)[C@H](CCC(N)=O)NC(=O)[C@H](C)NC(=O)[C@H](CCCCNC(=O)COCCOCCNC(=O)COCCOCCNC(=O)CC[C@H](NC(=O)CCCCCCCCCCCCCCCCC(=O)O)C(=O)O)NC(=O)[C@H](CCCCN)NC(=O)[C@H](CC(=O)O)NC(=O)[C@H](CC(C)C)NC(=O)[C@H](CC(C)C)NC(=O)[C@@H](NC(=O)[C@H](CO)NC(=O)[C@H](Cc1ccncc1)NC(=O)[C@H](CC(=O)O)NC(=O)[C@H](CO)NC(=O)[C@@H](NC(=O)[C@](C)(Cc1ccccc1)NC(=O)[C@@H](NC(=O)CNC(=O)[C@H](CCC(N)=O)NC(=O)C(C)(C)NC(=O)[C@@H](N)Cc1ccc(O)cc1)[C@@H](C)O)[C@@H](C)O)[C@@H](C)CC)C(=O)N[C@@H](CCC(=O)O)C(=O)N[C@@H](Cc1ccc(O)cc1)C(=O)N[C@@H](CC(C)C)C(=O)N[C@@H](CC(C)C)C(=O)N[C@@H](CCC(=O)O)C(=O)NCC(=O)NCC(=O)N1CCC[C@H]1C(=O)N[C@@H](CO)C(=O)N[C@@H](CO)C(=O)NCC(=O)N[C@@H](C)C(=O)N1CCC[C@H]1C(=O)N1CCC[C@H]1C(=O)N1CCC[C@H]1C(=O)N[C@@H](CO)C(N)=O` [Example 418] (H-Y[Aib]QGT[αMeF]TSD[4Pal]SILLDKK([AEEA-AEEA-γGlu-C18 diacid])AQ[Aib]AFIEYLLEGGPSSGAPPPS-NH2; N-terminus assumed): the half-maximal effective concentration (EC50) on hGIPR [1] turned out to be 6.02 nM; at hGLP-1R [2], 36.6 nM; on human GcgR, 627 nM; on hGIPR [3] it was 0.0153 nM; at hGLP-1R [4] it was 0.264 nM; on hGcgR, 4.7 nM.

Turning to `CC[C@H](C)[C@H](NC(=O)[C@H](CO)NC(=O)[C@H](Cc1ccc(O)cc1)NC(=O)[C@H](CC(=O)O)NC(=O)[C@H](CO)NC(=O)[C@@H](NC(=O)[C@](C)(Cc1ccccc1)NC(=O)[C@@H](NC(=O)CNC(=O)[C@H](CCC(N)=O)NC(=O)C(C)(C)NC(=O)[C@@H](N)Cc1ccc(O)cc1)[C@@H](C)O)[C@@H](C)O)C(=O)N[C@@H](CC(C)C)C(=O)N[C@@H](CC(C)C)C(=O)N[C@@H](CC(=O)O)C(=O)N[C@@H](CCCCN)C(=O)N[C@@H](CCCCNC(=O)COCCOCCNC(=O)COCCOCCNC(=O)CC[C@H](NC(=O)CCCCCCCCCCCCCCCCC(=O)O)C(=O)O)C(=O)N[C@@H](C)C(=O)N[C@@H](CCC(N)=O)C(=O)NC(C)(C)C(=O)N[C@@H](C)C(=O)N[C@@H](Cc1ccccc1)C(=O)N[C@H](C(=O)N[C@H](CCC(=O)O)C(=O)N[C@@H](Cc1ccc(O)cc1)C(=O)N[C@@H](CC(C)C)C(=O)N[C@@H](CC(C)C)C(=O)N[C@@H](CCC(=O)O)C(=O)NCC(=O)NCC(=O)N1CCC[C@H]1C(=O)N[C@@H](CO)C(=O)N[C@@H](CO)C(=O)NCC(=O)N[C@@H](C)C(=O)N1CCC[C@H]1C(=O)N1CCC[C@H]1C(=O)N1CCC[C@H]1C(=O)N[C@@H](CO)C(N)=O)[C@@H](C)CC` [Example 419], the EC50 on hGIPR [1] is 9.47 nM; on hGLP-1R [2], 65.5 nM; at human GcgR it was 1650 nM; at hGIPR [3] it was 0.0235 nM; at hGLP-1R [4], 0.615 nM; at hGcgR, 8.52 nM.

The values above are taken from patent US20240270821A1, “GIP/GLP1/GCG TRI-RECEPTOR AGONISTS AND USES THEREOF” (priority 2023, published 2024).
